Our source for the GI50 and TGI values is PubChem BioAssay (NCI).

SMILES strings stand for the structures. “And” between values parts separate entries of the source, which are not always exact repeats. Equal values may be shown once.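 1) Cells in 96-well plates. 2) Compound, 48 h, 5 concentrations. 3) Linear interpolation between surrounding doses. 4) Unreached endpoint = highest concentration. The concentration for 50% growth inhibition is given as GI50. TGI: total growth inhibition.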 Where only a bound is given, the exact number is not on record here.

Common to all, as to experiment: inhibition of tumour cell growth, NCI panel, 48 h
The subject of assay [1] is HOP-18 NSCLC.
In assay [2] the test system is DMS 114 small cell lung.
Assay [3] relates to SNB-78 CNS.
For assay [4], the system named is M19-MEL melanoma.
In assay [5] the test system is XF 498 CNS.
In assay [6] the test system is BT-549 breast.
Assay [7] has as its system MCF7 breast.
Assay [8] has as its system NCI/ADR-RES ovarian.
The test system of assay [9] is MDA-MB-231 breast.
Assay [10] concerns MDA-MB-435.
Assay [11] concerns T-47D breast.

For the compound `COc1cc(C2c3cc4c(cc3[C@@H](Nc3ccc(C(=O)O)cc3)C3COC(=O)[C@H]23)OCO4)cc(OC)c1O` (some centres undefined), the GI50 in assay [1] was 16.8 µM and 5.25 µM; in assay [2], 13.9 µM and 5.44 µM. Also, the TGI in [1] was greater than 100 µM; in assay [2], 47.8 µM and > 17.5 µM; in [3], 92.7 µM and 17.4 µM; in assay [4], 49.6 µM and > 17.5 µM.
In the case of `Nc1ccc(C(=O)N/C(=C\C=C\c2ccco2)c2nc3[nH]c(=S)[nH]c(=O)c3[nH]2)cc1`, the TGI in assay [5], in [3] and in assay [4] was greater than 100 µM each time.
For `Cc1cc2nc3c(=O)n(C)c(=O)nc-3n(-c3ccc(Cl)cc3)c2cc1C`, the TGI turned out to be 7.14 µM in assay [5]; 19.9 µM in [1]; 13.7 µM in [2]; 45.9 µM in assay [3]; 5.74 µM in assay [4].
With `O=C(Nc1ccccc1)c1ccc(Cl)c([N+](=O)[O-])c1`, the TGI in assay [5] was determined as 43.4 µM; in [2], 33.2 µM; in assay [3] it was 83.9 µM; in [4], 34.3 µM.
As to `C=CCCCCCCCCCCCC1CCC(CC)N1` (centres undefined), the TGI in assay [1] is 25.2 µM; in assay [2] it was 14.7 µM; in assay [3], 37.8 µM; in [4] it was 16.2 µM.
Regarding `O=C(C(O)c1cn(Cc2ccccc2)c2ccccc12)N1CCCCC1` (centres undefined), the TGI in assay [5] is greater than 100 µM; in assay [1] it was 90 µM; in assay [2], greater than 100 µM; in assay [3] it was greater than 10 µM; in [4], greater than 100 µM.
With `NC(N)=N/N=C(/c1nc2ccc([N+](=O)[O-])cc2[nH]c1=O)C(O)c1ccco1` (centres undefined), the TGI in assay [5], in assay [1], in assay [2], in assay [3] and in [4] was greater than 100 µM each time.
`CCOC(=O)CCC(=O)C1c2cccc(O)c2C(=O)c2c(O)cccc21`: the TGI stood at 0.551 µM in assay [5], 3.33 µM in assay [1], 1.65 µM in [2] and 2.29 µM in assay [4].
On to `O=C1C=C(c2c(O)ccc3ccccc23)c2ccccc2C1=O`, for which the TGI in assay [1] was 23.3 µM; in assay [2], 6.71 µM; in assay [6], 5.32 µM; in [7] it was 2.11 µM; in assay [8], 8.96 µM; in assay [9], 8.79 µM. Moreover, the results for the TGI in [10], in assay [3] and in assay [4] were 5.86 µM, 8.64 µM and 8.81 µM, respectively.
For the compound `N#CC(C#N)=C(N)/C(C#N)=C\c1ccnc2ccccc12`, the TGI in assay [5] is 69.7 µM; in assay [1], greater than 100 µM; in [2], 38.8 µM; in assay [3], greater than 100 µM; in assay [4], 40.8 µM.
Regarding `Cc1nc2ccc(C(F)(F)F)cc2nc1Nc1ccc(Cl)c(Cl)c1`, the TGI came to 22.2 µM in [5], 29.5 µM in [1], 34.4 µM in assay [3] and 24.4 µM in [4].
Turning to `c1cnc2c(c1)-n1cccc1C1(CCSCC1)NN2`, the TGI in assay [5], in [1] and in assay [4] was greater than 100 µM throughout.
As for `CCN(CC)CCn1c2c3ccccc3ccc2c2oc(=O)c3ccccc3c21`, the TGI in [5], in assay [1], in assay [2], in assay [3] and in [4] was greater than 100 µM in each case.
`O=c1cc(-c2ccccc2)[nH]c2cc(Cl)cc(Cl)c12`: the TGI in assay [1], in assay [2] and in [4] was greater than 100 µM each time.
As for `CN(C)CCNc1nc2ccccc2c2c1c1c(n2Cc2ccccc2)-c2ccccc2C1=O`, the GI50 is 19.4 µM in assay [11]; 16.7 µM in [6]; 15.1 µM in assay [7]; 5.77 µM in assay [8]; 16.5 µM in [9]; 16.8 µM in assay [10]. Moreover, the TGI in assay [11] came out at 50.6 µM; in assay [6] it was 32.9 µM; in assay [7] it was 33.6 µM; in [8] it was 23.1 µM; in [9] it was 32.1 µM; in assay [10], 35.5 µM.
With `CCCCNc1nc(NC(C)(C)C)nc(NC(C)(C)C)n1`, the GI50 in assay [11] is 15.2 µM; in assay [6], 19.1 µM; in assay [7], 9.94 µM; in assay [8] it was 3.31 µM; in [9] it was 2.27 µM; in assay [10], 31.8 µM. Further, the TGI in assay [11] is greater than 100 µM; in assay [6], greater than 100 µM; in assay [7], greater than 100 µM; in assay [8], greater than 100 µM; in [9], 34.8 µM; in assay [10], greater than 100 µM.
In the case of `O=C(O)C1CCc2ccc3ccccc3c2C1c1cccc2ccccc12` (centres undefined), the TGI is greater than 100 µM in assay [11]; 38.8 µM in assay [6]; 89.4 µM in [7]; 57.8 µM in [8]; 85.4 µM in [9]; 73.7 µM in assay [10].
`COc1ccc(NC(=O)C2C(=O)N(c3ccc(OC)cc3)C(=O)/C2=N/O)cc1` (centres undefined): the TGI is 18.7 µM in assay [5]; 44.4 µM in assay [1]; greater than 100 µM in [2]; greater than 100 µM in assay [3]; 61.1 µM in assay [4].
Take `CCCC(=O)c1c(NOC2OC(COC(C)=O)C(OC(C)=O)C(OC(C)=O)C2OC(C)=O)nc(OC)n(C)c1=O` (centres undefined): the TGI in assay [5], in assay [2], in [3] and in assay [4] was greater than 100 µM each time.
